{"source": "patent US7544773B2", "about": "(priority 2003, dated 2009)", "target": "Dr hemagglutinin (Escherichia coli, UniProt P24093)", "sequence (P24093 22-160)": "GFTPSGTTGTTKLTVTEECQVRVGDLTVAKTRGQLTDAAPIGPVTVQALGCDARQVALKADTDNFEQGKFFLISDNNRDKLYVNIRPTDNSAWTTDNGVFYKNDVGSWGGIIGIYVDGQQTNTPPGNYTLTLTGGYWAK", "assay_type": "cell-based, E. coli", "data": [{"substance": "TTGTTKL", "values": [{"measurement": "polymerisation of Dr hemagglutinin judged by hemaglutination assay", "result": "completely abolished"}]}]}
